What was measured:
[1] = molecular target: T1, human leukocytic elastase (HLE) (Homo sapiens, UniProt P08246); test: Anti-elastase test: hydrolysis of N-methoxysuccinyl-alanine-proline-valine-para-nitroanilide, spectrophotometry at 410 nm; assay type: biochemical
T1 sequence (P08246 30-267): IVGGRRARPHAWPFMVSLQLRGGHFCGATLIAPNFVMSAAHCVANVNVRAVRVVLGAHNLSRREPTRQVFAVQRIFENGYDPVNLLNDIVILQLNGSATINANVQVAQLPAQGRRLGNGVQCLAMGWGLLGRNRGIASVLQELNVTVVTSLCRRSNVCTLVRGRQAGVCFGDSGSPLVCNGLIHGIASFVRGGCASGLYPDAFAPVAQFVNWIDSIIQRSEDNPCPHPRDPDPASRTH
Protocol: Such a substance can be, for example, N-methoxysuccinyl-alanine-proline-valine-para-nitroanilide, a normally colourless substance which releases, by hydrolysis with human leukocytic elastase, a coloured product, para-nitroaniline, whose appearance kinetics can be monitored by spectrophotometry at 410 nm.
The reaction is carried out in a spectrophotometer thermostatically set at 25° C. and equipped with a sample changer. All of the kinetics are carried out a minimum of three times, the average and the standard deviation then being calculated for the three values obtained.
The presence of a molecule with anti-elastase activity is reflected by a limitation of the appearance of the coloured product and the anti-elastase effect can then be calculated relative to a control curve obtained in the absence or the said molecule.
A correlation thus exists between the percentage of inhibition of the appearance of the coloured product by the test compound and the percentage of inhibition of human leukocytic elastase.

lipase = test: Anti-lipase test: titration of free fatty acids formed from triglycerides; assay type: biochemical
Protocol: The test involves assaying the free fatty acids obtained by degradation of the triglycerides with lipase. A known amount of triglycerides (“Lipase Substrate” sold by the company Sigma), a known amount of lipase (“Enzyme Control 2E” sold by the company Sigma) and the test composition are placed together in a tube. After an incubation period of three hours at 37° C., the enzymatic reaction is stopped and the free fatty acids formed are assayed by titration with 0.05 M sodium hydroxide. The results are expressed as a percentage of inhibition of the enzyme by the composition considered, by comparing it with a control test.

Propionibacterium acnes = test: Minimum inhibitory concentration at pH 5 on growth of Propionibacterium acnes; assay type: cell-based; conditions: P. acnes, pH 5, product alone
Protocol: (§1) a) The minimum inhibitory concentration, at pH 5, of composition according to the invention on the growth of the strains below was determined:
(§2) b) The minimum inhibitory concentration, at pH 5, on the growth of the same strains for an octanoylglycine+zinc gluconate combination was determined.

Staphylococcus aureus = test: Minimum inhibitory concentration at pH 5 on growth of Staphylococcus aureus; assay type: cell-based; conditions: Staph. Aureus, pH 5, product alone
Protocol: as §1, §2

Staphylococcus epidermis = test: Minimum inhibitory concentration at pH 5 on growth of Staphylococcus epidermis; assay type: cell-based; conditions: Staph. Epidermis, pH 5, product alone
Protocol: as §1, §2

% inhibition of elastase ([1]; 0.625% octanoylglycine alone) | inhibitory activity on elastase (in words) ([1]; at the concentrations tested) | percentage of inhibition of lipase (lipase; 1.6% octanoylglycine, 3 hours at 37° C.) | Compound | minimum inhibitory concentration (Propionibacterium acnes) | minimum inhibitory concentration (Staphylococcus aureus) | minimum inhibitory concentration (Staphylococcus epidermis) | percentage of inhibition of lipase (lipase; 0.13% solution of zinc gluconate, same operating conditions)
5% | no inhibitory activity | 44% | CCCCCCCC(=O)NCC(=O)O [octanoylglycine] | 0.5% | 0.25% | 0.20% | 
 |  |  | zinc gluconate | 1% | 0.5% | 10.5% | 40%

— patent US20010002257A1, “Composition comprising a lipoamino acid and the constituents of a tannin-rich plant extract, and cosmetic use thereof” (priority 1997, published 2001)
